Source: patent US5304474A, “Hydrophobic peptide esters and amides” (Board of Regents, The University of Texas System, priority 1991, dated 1994)

Assays:
human erythrocytes (RBC) = experiment: 51Cr release from RBC incubated with peptide ester alone; format: cell-based; conditions: for ^51 Cr Release from RBC: Nil 410 + 12
Protocol: (§1) The following experiments were carried out to determine whether DPPI could generate a lytic product from Leu-Leu-OMe. In the experiment detailed in FIG. 12, ^51 Cr-labeled human erythrocytes (RBC) were incubated with varying concentrations of Leu-Leu-OMe alone or in the presence of purified bovine DPPI.

[1] = system: precursors of activated NK (AcNK); experiment: Elimination of activated NK-like cells (6 day MLC, lysis of K562); format: cell-based, human
Protocol: Experiments were also designed to assess the relative sensitivity of NK and CTL to Leu-Leu-OMe. In the studies detailed in FIGS. 8 and 9, cytotoxicity assays were performed over a broad range of E:T ratios and units of lytic activity arising from equal numbers of responding lymphocytes were calculated and compared. […] Only after exposure to greater than 250 micromolar Leu-Leu-OMe were all CTL precursors eliminated.
Non-adherent lymphocytes (2.5×10^6 /ml) were incubated with the indicated concentrations of Leu-Leu-OMe for 15 minutes. Cells were then washed and either placed in mixed lymphocyte culture or assayed for specific lysis of K562 cells (NK). After 6 day MLC, cells were assayed for specific lysis of allogeneic stimulator lymphoblasts (CTL) or K562 (AcNK). Data are expressed as percent of control lytic units (mean+SEM, n=6).
Both values were also higher than the mean concentration of Leu-Leu-OMe required to diminish spontaneous NK lytic activity by 75% (35 micromolar±4 micromolar). […] Thus, only after MLC activation did CTL display a sensitivity to Leu-Leu-OMe toxicity that was equal to that of NK cells.

[2] = system: graft vs. host disease (GVHD); experiment: Murine bone marrow transplantation, donor inoculum treated in vitro: survival and GVHD; format: in vivo, B6→B6D2F1 mice
Protocol: Female, 8-16-wk-old, C57BL/6J (B6) and (C57BL/6J x DBA/2J)F1 mice (B6D2F1) were used as donors and recipients, respectively. For some experiments B6 donors were […] 70×10^6 cells/ml either in phosphate-buffered saline (PBS) or in Leu-Leu-OMe dissolved in PBS. Leu-Leu-OMe was synthesized from leucyl-leucine as previously described (10). After a 15 min incubation at room temperature, the cells were washed once, suspended in Hanks' balanced salt solution, counted, and infused via a lateral tail vein into irradiated (950 cGy) F1 recipients.
Survival times were measured from the day of transplantation to the day of death. Deaths occurring within 8 d of transplantation were considered to be the result of radiation-induced gastroenteritis and were excluded. The nonparametric Mann-Whitney test was used to determine whether the median survival times (MST) differed between groups (14).
Organs of recipient mice were fixed in 10% buffered formalin. Sections were stained with Hematoxylin and Eosin.

NK cells = experiment: Loss of NK cells from PBM, anti-NK (leu 11b) staining; format: cell-based, human; conditions: 15 minute exposure, 2 hours at 37° C. (FIG. 6)
Protocol: In the experiments depicted in FIG. 6, freshly isolated PBM (2.5×10^6 /ml PBS and 1g/l glucose) were incubated at room temperature with varying concentrations of Leu-Leu-OMe. After a 15 minute exposure to this compound, the cells were washed, incubated for 2 hours at 37° C. and then assessed for the percentage of remaining viable cells which were stained by anti-MP or anti-NK monoclonal antibodies. Preincubation with greater than 25-50 micromola Leu-Leu-OMe led to loss of NK cells.
Anti-MP monoclonal antibodies (63D3) and anti-NK monoclonal antibodies (leu 11b) were obtained from Becton Dickinson Monoclonal Center, lnc., Mountain View, Cal. The antibody staining and Fluorescence Activated Cell Sorter (FACS) procedure was that of Rosenberg et al. (1981) (J. Immunol. V 126, p 1473). Data are expressed as percent of antibody staining in control cells (mean±SEM, n=4).

T4 enriched T cells = experiment: 51Cr release toxicity assay; format: cell-based, human
Protocol: (§2) In some experiments, toxicity of Leu-Leu-OMe for a variety of cell populations was assessed by ^51 Cr release In assays where cells obtained from suspension culture were to be used, cells were labeled with Na2^51 CrO4 (ICN, Plainview, N.Y.) for 60-90 minutes at 37° C. and then washed three times. Cells were then suspended in PBS (2.5×10^6 /ml) and incubated in microtiter plates, 50 microL/well with indicated concentrations of Leu-Leu-OMe for 15 minutes at room temperature. […] Following ^51 Cr labeling, wells were thoroughly washed and varying concentrations of Leu-Leu-OMe added in 50 microL PBS and the plates incubated for 15 minutes at room temperature.
(§3) Following such initial serum-free incubations, 200 microL/well of medium RPMI containing 10% FBS were added and the plates incubated for another 4 hours prior to removal of 100 microliters of supernatant. Radioactivity in the supernatant was measured in an auto-gamma scintillation spectrometer (Packard Instrument Co., Downers Grove, Ill.). The percent specific release was calculated from the formula: [formula] in which maximal release refers to cpm obtained in wells containing 50% lysing agent (American Scientific Products, McGraw Park, Ill.) and spontaneous release refers to cpm released by cells incubated in control medium in the absence of Leu-Leu-OMe or the lysing agent.
(§4) In developing the data expressed in FIG. 7, cells (2.5×10^6 /ml) were exposed to the indicated concentrations of Leu-Leu-OMe for 15 minutes at room temperature, then specific ^51 Cr release during the next four hours was assessed.

[3] = system: MP-enriched adherent cells (AC); experiment: 51Cr release toxicity assay; format: cell-based, human
Protocol: as §2, §3, §4

T8-enriched population = experiment: 51Cr release toxicity assay; format: cell-based, human
Protocol: as §2, §3, §4

[4] = target: dipeptidyl peptidase I (DPPI) (Bos taurus, UniProt Q3ZCJ8); experiment: Dipeptidyl peptidase I catalyzed lysis of human RBC; format: cell-based, bovine; conditions: FIG. 12, FIG. 13
Protocol: as §1
In the experiments detailed in FIG. 13, ^51 Cr-labeled RBC's were exposed to various dipeptide esters or amides in the presence or absence of purified DPPI. […] The first observation is probably related to the inability of this enzyme to catalyze transpeptidation of peptide esters containing D-stereoisomers of amino acids. The latter observations are likely to be related to the fact that polymers of Ser-Leu or Leu-Tyr are not hydrophobic and therefore unlikely to enter and disrupt cell membranes.

human dermal fibroblasts = experiment: 51Cr release toxicity assay

dipeptidyl peptidase I (DPPI), sequence (Q3ZCJ8 231-394 limits assumed): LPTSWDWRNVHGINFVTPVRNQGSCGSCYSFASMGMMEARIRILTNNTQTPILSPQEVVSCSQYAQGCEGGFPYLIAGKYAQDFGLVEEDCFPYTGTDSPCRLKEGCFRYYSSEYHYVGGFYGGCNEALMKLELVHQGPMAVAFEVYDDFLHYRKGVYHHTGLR
dipeptidyl peptidase I (DPPI), sequence (Q3ZCJ8 25-134 limits assumed): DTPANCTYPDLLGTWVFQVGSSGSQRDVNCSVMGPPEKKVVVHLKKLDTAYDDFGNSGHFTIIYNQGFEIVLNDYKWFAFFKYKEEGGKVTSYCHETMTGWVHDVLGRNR
dipeptidyl peptidase I (DPPI), sequence (Q3ZCJ8 395-463 limits assumed): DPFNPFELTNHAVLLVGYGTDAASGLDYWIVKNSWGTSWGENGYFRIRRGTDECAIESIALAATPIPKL

Structure (SMILES): COC(=O)[C@H](CC(C)C)NC(=O)[C@@H](N)CC(C)C [Leu-Leu-OMe, L-leucyl-L-leucine methyl ester]
- ^51 Cr Release from RBC (human erythrocytes (RBC); 100 micro-M): 400 + 27
- ^51 Cr Release from RBC (human erythrocytes (RBC); 500 micro-M): 482 + 57
- ^51 Cr Release from RBC (human erythrocytes (RBC); 2500 micro-M): 482 + 121
- damage to RBC by compound alone, in words (human erythrocytes (RBC); no DPPI): results in no damage to RBC
- precursors of activated NK, lytic units ([1]; 100 micromolar, 15 minutes (FIG. 8)): totally eliminated
- mean concentration required to diminish lytic activity by 75% ([1]; elimination of precursors of activated NK): 50 ± 5 µM
- GVHD-mediated tissue injury ([2]; 25×10^6 cells treated with 250 micro-M): had no evidence of cutaneous GVHD
- GVHD-mediated tissue injury ([2]; 25×10^6 donor cells treated with 125 micro-M): manifested evidence of acute GVHD, although at somewhat diminished intensity
- GVHD-mediated tissue injury ([2]; 50×10^6 treated cells): manifested acute cutaneous GVHD
- mice surviving >90 d (long-term survivors) ([2]; immune donors, 37×10^6 donor cells treated with 250 micro-M): three of nine
- median survival time (MST) ([2]; immune donors, 37×10^6 donor cells treated with 250 micro-M, untreated 11 d): 49 days
- median survival time (MST) ([2]; naive donors, 25×10^6 donor cells treated with 125 micro-M, untreated 19 d): 41.5 days
- survival of all recipients ([2]; naive donors, 25×10^6 donor cells treated with 250 micro-M, untreated MST 19 d): > 120 days
- survival of all recipients ([2]; naive donors, 50×10^6 donor cells treated with 250 micro-M, untreated MST 14 d): > 200 days
- preincubation concentration leading to loss of NK cells (NK cells): 25 to 50 µM
- 51Cr release (T4 enriched T cells; 1000 micromolar): caused minimal ^51 Cr release
- Leu--Leu--OMe Sensitivity (LD50) (T4 enriched T cells; T4 Cells): > 500 micro-M
- 51Cr release ([3]; 25-50 micromolar): minimal ^51 Cr release
- Leu--Leu--OMe Sensitivity (LD50) ([3]; M--phi): 75 micro-M
- 51Cr release (T8-enriched population; N-SRBC positive cells depleted of OKT4 positive cells): produced high levels of ^51 Cr release
- Leu--Leu--OMe Sensitivity (LD50) (T8-enriched population; T-8 Cells): 250 micro-M
- RBC lysis in the presence of purified DPPI, in words [4]: RBC lysis occurs
- 51Cr release (human dermal fibroblasts): no significant Leu-Leu-OMe induced ^51 Cr release
- subsequent proliferative capacity (human dermal fibroblasts; 500 micromolar): had no discernible effect on subsequent proliferative capacity
